# Reference: patent US12029744B2, “Bicyclic heteroaryl derivatives as ectonucleotide pyrophosphatase phosphodiesterase 1 inhibitors” (Riboscience LLC, priority 2019, dated 2024)
# Counter-ions that a name gives are not always drawn.
# Molecular target: T1, ENPP1 (Homo sapiens, UniProt P22413)
# T1 sequence (P22413 1-925): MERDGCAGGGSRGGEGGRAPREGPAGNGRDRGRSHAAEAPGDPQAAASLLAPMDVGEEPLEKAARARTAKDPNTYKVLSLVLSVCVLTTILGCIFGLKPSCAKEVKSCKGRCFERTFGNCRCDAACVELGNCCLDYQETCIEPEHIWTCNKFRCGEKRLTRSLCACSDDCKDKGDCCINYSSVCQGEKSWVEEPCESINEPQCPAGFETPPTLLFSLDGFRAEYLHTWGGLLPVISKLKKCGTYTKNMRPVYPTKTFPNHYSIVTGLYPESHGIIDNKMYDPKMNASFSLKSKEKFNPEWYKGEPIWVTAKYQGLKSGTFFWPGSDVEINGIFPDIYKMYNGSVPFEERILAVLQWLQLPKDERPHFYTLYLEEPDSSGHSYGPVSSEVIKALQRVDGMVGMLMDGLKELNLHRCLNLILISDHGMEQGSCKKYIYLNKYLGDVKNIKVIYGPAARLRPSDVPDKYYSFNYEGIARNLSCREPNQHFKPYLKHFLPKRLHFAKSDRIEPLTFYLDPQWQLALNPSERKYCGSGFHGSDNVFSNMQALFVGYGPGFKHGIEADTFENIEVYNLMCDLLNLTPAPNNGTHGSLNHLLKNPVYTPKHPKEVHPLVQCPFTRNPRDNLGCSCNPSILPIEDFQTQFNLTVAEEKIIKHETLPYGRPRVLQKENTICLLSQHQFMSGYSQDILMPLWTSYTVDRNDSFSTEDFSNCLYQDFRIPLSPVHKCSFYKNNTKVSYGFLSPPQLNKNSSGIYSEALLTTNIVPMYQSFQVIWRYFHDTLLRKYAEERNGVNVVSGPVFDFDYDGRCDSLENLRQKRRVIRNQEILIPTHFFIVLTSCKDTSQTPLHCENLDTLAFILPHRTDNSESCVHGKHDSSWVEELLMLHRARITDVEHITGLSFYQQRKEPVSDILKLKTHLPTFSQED
# Experiment: Measurement of pNP-TMP hydrolysis by ENPP1 (enzyme activity assay, absorbance at 405 nm)
# Format: biochemical
# Settings: not given
# Protocol: Measurement of pNP-TMP Hydrolysis by ENPP1
# p-Nitrophenyl thymidine 5′-monophosphate (pNP-TMP) is a synthesized substrate for ENPP1. The ENPP1 enzyme activity assay with pNP-TMP substrate was conducted as follows:
# Incubation of ENPP1 with compounds was set at 25° C. for 10 min. […] For each compound dilution, wells with assay buffer (50 mM Tris-HCl, pH8.8, 250 mM NaCl, 0.1 mg/ml BSA, 1% DMSO) only but no ENPP1 were included as controls for subtraction of test compound derived absorbance at 405 nm.
# Absorbance at 405 nm was recorded immediately in kinetic mode by PerkinElmer 2300 Enspire multimode plate reader.
# For each inhibitor, the specific ENPP1 activity was calculated using the following equation: ENPP1 activity (pmol/min/μg)=Adjusted Vmax (OD405 nm/min)×conversion factor (pmol/OD405 nm)/amount of enzyme (μg)
# Adjusted Vmax=V0×(Km+(S))/(S).
# V0=(OD405 nm with ENPP1−OD405 nm ENPP1 blank)/minutes. OD405 nm was plotted, with blank subtracted, against time (minutes), the initial linear rate is V0. […]
# The slope is the conversion factor. The percent ENPP1 activity for each sample was calculated using the following equation: % enzyme activity=sample enzyme activity/MAX Activity×100%.
# To determine the IC50 for each compound, compound concentration values and percent enzyme activity values were inserted into GraphPad Prism (GraphPad Prism version 7.0 for Windows, GraphPad Software, La Jolla California USA, www.graphpad.com), and Prism's Transform analysis was used to convert the x-axis values (compound concentration) to logarithms. A sigmoidal variable slope nonlinear regression analysis was performed using the following equation: Y=Bottom+(Top−Bottom)/(1+10^[…])).
row,SMILES,Ki [nM]
1,"NC(=O)c1ccc2c(ncn2Cc2ccc(P(=O)(O)O)cc2)n1 [Compound 138, 4-((5-carbamoylimidazo[4,5-b]pyridin-1-yl)methyl)phenylphosphonic acid]",< 100

# Same assay, conditions: substrate pNP-TMP 500 μM, KM 232 μM; Ki from IC50 by Cheng-Prusoff; read-out: Ki (pNP-TMP)
row,SMILES,Ki [nM]
1,"NC(=O)c1ccc2c(ncn2Cc2ccc(B(O)O)cc2)c1N [Compound 105, 4-((4-amino-5-carbamoyl-1,3-benzodiazol-1-yl)methyl)phenylboronic acid]",< 100
2,"COc1cccc2c1nc(C)n2Cc1ccc(B(O)O)cc1 [Compound 95, 4-((4-methoxy-2-methyl-1,3-benzodiazol-1-yl)methyl) phenylboronic acid]",< 100
3,"NC(=O)c1ccc2c(ncn2Cc2ccc(B(O)O)cc2)n1 [Compound 59, 4-((5-carbamoylimidazo[4,5-b]pyridin-1-yl)methyl)phenylboronic acid]",< 10
4,"Cc1nc2cc(C(N)=O)ccc2n1Cc1ccc(B(O)O)cc1 [Compound 36, (4-((5-carbamoyl-2-methyl-1H-benzo[d]imidazol-1-yl)methyl)phenyl)boronic acid]",< 10
5,"O=P(O)(O)c1ccc(Cn2cnc3nc(O)ccc32)cc1 [Compound 150, 4-((5-hydroxyimidazo[4,5-b]pyridin-1-yl)methyl)phenylphosphonic acid]",< 100
6,OB(O)c1ccc(Cn2cnc3nc(O)ccc32)cc1 [Compound 127],< 10
7,"NC(=O)c1nccc2c1ncn2Cc1ccc(B(O)O)cc1 [Compound 96, 4-((4-carbamoylimidazo[4,5-c]pyridin-1-yl)methyl)phenylboronic acid]",< 10
8,"N#Cc1ccc2c(c1)ncn2Cc1ccc(P(=O)(O)O)cc1 [Compound 24, (4-((5-cyano-1H-benzo[d]imidazol-1-yl)methyl)phenyl)phosphonic acid]",< 1000
9,"NC(=O)c1ccc2c(c1)ncn2Cc1ccc(B(O)O)cc1 [Compound 17, 4-((5-carbamoyl-1,3-benzodiazol-1-yl)methyl)phenylboronic acid trifluoroacetic acid salt]",< 10
10,"COc1ccc2c(ncn2Cc2ccc(B(O)O)cc2)n1 [Compound 125, 4-((5-methoxyimidazo[4,5-b]pyridin-1-yl)methyl)phenylboronic acid]",< 10
11,"NC(=O)c1ccc2c(c1)ncn2Cc1ccc(P(=O)(O)O)cc1 [Compound 49, 4-((5-carbamoyl-1,3-benzodiazol-1-yl)methyl)phenylphosphonic acid]",< 1000
12,"COc1cc2c(cc1C(N)=O)ncn2Cc1ccc(B(O)O)cc1 [Compound 32, 4-((5-carbamoyl-6-methoxy-1,3-benzodiazol-1-yl)methyl)phenylboronic acid]",< 100
13,"COc1nccc2c1cnn2Cc1ccc(B(O)O)cc1 [Compound 98, 4-((4-methoxypyrazolo [4,3-c]pyridin-1-yl)methyl) phenylboronic acid]",< 1000
14,"CCc1nc2ccnc(O)c2n1Cc1ccc(B(O)O)cc1 [Compound 74, 4-((2-ethyl-4-hydroxyimidazo[4,5-c]pyridin-3-yl)methyl)phenylboronic acid]",< 1000
15,"NC(=O)c1ccc2c(ccn2Cc2ccc(P(=O)(O)O)cc2)c1 [Compound 142, 4-((5-carbamoylindol-1-yl)methyl)phenylphosphonic acid]",< 1000
16,"O=c1[nH]cnc2c1c(F)cn2Cc1ccc(B(O)O)cc1 [Compound 63, (4-((5-fluoro-4-oxo-3,4-dihydro-7H-pyrrolo[2,3-d]pyrimidin-7-yl)methyl)phenyl) boronic acid]",< 100
17,"CC(C)c1nc2cc(C(N)=O)ccc2n1Cc1ccc(B(O)O)cc1 [Compound 37, 4-((5-carbamoyl-2-isopropyl-1,3-benzodiazol-1-yl)methyl)phenylboronic acid]",< 10
18,"OB(O)c1ccc(Cn2cnc3c(C(F)F)cccc32)cc1 [Compound 130, 4-((4-(difluoromethyl)-1,3-benzodiazol-1-yl)methyl)phenylboronic acid]",< 1000

row,SMILES,Ki [nM]
1,"O=P(O)(O)c1ccc(Cn2ccc3c(O)nccc32)cc1 [Compound 56, (4-((4-hydroxy-1H-pyrrolo[3,2-c]pyridin-1-yl)methyl)phenyl)phosphonic acid]",< 100
2,"NC(=O)c1ccc2c(cnn2Cc2ccc(B(O)O)cc2)c1 [Compound 34, 4-((5-carbamoylindazol-1-yl)methyl)phenylboronic acid]",< 100
3,"O=c1[nH]cnc2c1ncn2Cc1ccc(B(O)O)cc1 [Compound 3, 4-((6-oxo-1H-purin-9-yl)methyl)phenylboronic acid]",< 1000
4,"CC(C)c1cc2c(O)nccc2n1Cc1ccc(B(O)O)cc1 [Compound 107, 4-((4-hydroxy-2-isopropylpyrrolo[3,2-c]pyridin-1-yl)methyl)phenylboronic acid]",< 100
5,"NC(=O)c1ccc2c(c1)c(Cl)cn2Cc1ccc(P(=O)(O)O)cc1 [Compound 143, 4-((5-carbamoyl-3-chloroindol-1-yl)methyl)phenylphosphonic acid]",< 1000
6,"OB(O)c1ccc(Cn2ccc3c(O)nccc32)cc1 [Compound 9, (4-((4-hydroxy-1H-pyrrolo[3,2-c]pyridin-1-yl)methyl)phenyl)boronic acid]",< 10
7,"N#Cc1ccc2c(c1)ncn2Cc1ccc(B(O)O)cc1 [Compound 15, 4-((5-cyano-1,3-benzodiazol-1-yl)methyl)phenylboronic acid]",< 10
8,"O=P(O)(O)c1ccc(Cn2ncc3c(O)nccc32)cc1 [Compound 64, 4-((4-hydroxypyrazolo[4,3-c]pyridin-1-yl)methyl)phenylphosphonic acid]",< 100
9,"Cc1nc2cc(C(N)=O)ccc2n1Cc1ccc(P(=O)(O)O)cc1 [Compound 136, 4-((5-carbamoyl-2-methyl-1,3-benzodiazol-1-yl)methyl)phenylphosphonic acid]",< 100
10,"CC(C)c1nc2nc(C(N)=O)ccc2n1Cc1ccc(B(O)O)cc1 [Compound 146, 4-((5-carbamoyl-2-isopropylimidazo[4,5-b]pyridin-1-yl)methyl)phenylboronic acid]",< 10
11,"COc1cc2ncn(Cc3ccc(B(O)O)cc3)c2cc1OC [Compound 1, 4-((5,6-dimethoxy-1,3-benzodiazol-1-yl)methyl)phenylboronic acid]",< 100
12,"CCc1nc2c(O)nccc2n1Cc1ccc(B(O)O)cc1 [Compound 73, 4-((2-ethyl-4-hydroxyimidazo [4,5-c]pyridin-1-yl)methyl) phenylboronic acid]",< 100
13,"CCc1cc2c(O)nccc2n1Cc1ccc(B(O)O)cc1 [Compound 106, 4-((2-ethyl-4-hydroxypyrrolo[3,2-c]pyridin-1-yl)methyl)phenylboronic acid]",< 10
14,"Cc1cc2nc(C(N)=O)ccc2n1Cc1ccc(B(O)O)cc1 [Compound 77, 4-((5-carbamoyl-2-methylpyrrolo[3,2-b]pyridin-1-yl)methyl) phenylboronic acid]",< 10
15,"CC(C)c1nc2c(O)nccc2n1Cc1ccc(B(O)O)cc1 [Compound 75, 4-((4-hydroxy-2-isopropylimidazo[4,5-c]pyridin-1-yl)methyl) phenylboronic acid]",< 100
16,"NC(=O)c1ccc2c(cnn2Cc2ccc(P(=O)(O)O)cc2)c1 [Compound 65, 4-((5-carbamoylindazol-1-yl)methyl) phenylphosphonic acid]",< 100
17,"Nc1nc2c(ncn2Cc2ccc(B(O)O)cc2)c(=O)[nH]1 [Compound 5, 4-((2-amino-6-oxo-1H-purin-9-yl)methyl)phenylboronic acid]",< 100
18,"O=c1[nH]cnc2c1c(F)cn2Cc1ccc(P(=O)(O)O)cc1 [Compound 134, 4-((5-fluoro-4-oxo-3H-pyrrolo[2,3-d]pyrimidin-7-yl)methyl)phenylphosphonic acid]",< 100
